Values of other authors, collected in US20130130972A1, “ARTIFICIAL SWEETNERS AND PERFORMANCE” (priority 2010, published 2013).
Where a SMILES comes first, the peptide text is derived from it.

Settings: typically perceived sweetness, relative to sugar

Molecule	Sweetness by weight compared to sugar
CC1=CC(=O)NS(=O)(=O)O1 [Acesulfame potassium]	200×
C[C@@H](NC(=O)[C@@H](N)CC(=O)O)C(=O)NC1C(C)(C)SC1(C)C [Alitame]	2.000×
COC(=O)[C@H](Cc1ccccc1)NC(=O)[C@@H](N)CC(=O)O [Aspartame] (H-Asp-Phe-OMe)	160-200×
CCOc1ccc(NC(N)=O)cc1 [Dulcin]	250×
OC[C@@H](O)[C@@H](O)CO [Erythritol]	0.7×
OCC(O)CO [Glycerol]	0.6×
CC1(C)[C@@H](O[C@H]2O[C@H](C(=O)O)[C@@H](O)[C@H](O)[C@H]2O[C@@H]2O[C@H](C(=O)O)[C@@H](O)[C@H](O)[C@H]2O)CC[C@]2(C)[C@H]3C(=O)C=C4[C@@H]5C[C@@](C)(C(=O)O)CC[C@]5(C)CC[C@@]4(C)[C@]3(C)CC[C@@H]12 [Glycyrrhizin]	50×
OC[C@@H](O)[C@@H](O[C@@H]1O[C@H](CO)[C@H](O)[C@H](O)[C@H]1O)[C@H](O)[C@@H](O)CO [Lactitol]	0.4×
OC[C@@H](O)[C@@H](O[C@H]1O[C@H](CO)[C@@H](O)[C@H](O)[C@H]1O)[C@H](O)[C@@H](O)CO [Maltitol]	0.9×
OC[C@@H](O)[C@@H](O)[C@H](O)[C@H](O)CO [Mannitol]	0.5×
COc1ccc(CCC(=O)c2c(O)cc(O[C@@H]3O[C@H](CO)[C@@H](O)[C@H](O)[C@H]3O[C@@H]3O[C@@H](C)[C@H](O)[C@@H](O)[C@H]3O)cc2O)cc1O [Neohesperidin dihydrochalcone]	1500×
COC(=O)[C@H](Cc1ccccc1)NC(=O)[C@H](CC(=O)O)NCCC(C)(C)C [Neotame]	8000×
CCCOc1ccc([N+](=O)[O-])cc1N [P-4000]	4000×
O=C1NS(=O)(=O)c2ccccc21 [Saccharin]	300×
CC1=CC(=O)NS(=O)(=O)O1.COC(=O)[C@H](Cc1ccccc1)NC(=O)[C@@H](N)CC(=O)O [Salt of aspartame-acesulfame] (H-Asp-Phe-OMe)	350×
OC[C@@H](O)[C@@H](O)[C@H](O)[C@@H](O)CO [Sorbitol]	0.6×
OC[C@H]1O[C@H](O[C@]2(CCl)O[C@H](CCl)[C@@H](O)[C@@H]2O)[C@H](O)[C@@H](O)[C@H]1Cl [Sucralose]	600×
O=C(CO)[C@@H](O)[C@@H](O)[C@H](O)CO [Tagatose]	0.92×
OC[C@@H](O)[C@H](O)[C@@H](O)CO [Xylitol]	1.0×
Brazzein (QDKCKKVYENYPVSKCQLANQCNYDCKLDKHARSGECFYDEKRNLQCICDYCEY; UniProt P56552 1-54, looked up) [natural sugar substitute]	800×
Curculin	550×
Glucin	300×
Mabinlin [Mabinlin Protein]	100×
Monellin	3000×
Pentadin	500×
Thaumatin	2000×
